Experimental data: patent publication US10428106B2, “Phosphate replacement mRNA cap analogs” (ModernaTX, Inc., priority 2015, dated 2019)

Columns and labels:
CD-1 mice = assay: In vivo expression assay of hEPO mRNA in MC3-based LNP; details: i.v. bolus 0.05 mg/kg, 6 h after injection, mRNA carrying the cap, 5-methoxy uridine
Method: mRNAs encoding hEPO are synthesized according to the method described in Example 2 above, co-transcriptionally incorporating cap analogs of the disclosure. […] A MC3-based lipid nanoparticle (LNP) formulation of the synthesized mRNA is produced, and is intravenously administered to CD-1 mice (n=3) at a bolus dose of 0.05 mg/kg. The level of hEPO was tested at 6 h, 24 h, or 48 h after injection.

HeLa Lysate [1] = assay: Cell free translation assay of hEPO mRNAs carrying different caps; type: biochemical; details: hEPO levels after 3 hours; mRNA carrying the cap; modRNA with 5-methoxy uridine
eIF4E = biological target: T1, eIF4E (Homo sapiens, UniProt P06730); assay: Binding affinities to eIF4E using surface plasmon resonance (SPR)
T1 construct: HNAVIpeptTEVeIF4E 32-217(Biotinylated)
T1 sequence (P06730 32-217): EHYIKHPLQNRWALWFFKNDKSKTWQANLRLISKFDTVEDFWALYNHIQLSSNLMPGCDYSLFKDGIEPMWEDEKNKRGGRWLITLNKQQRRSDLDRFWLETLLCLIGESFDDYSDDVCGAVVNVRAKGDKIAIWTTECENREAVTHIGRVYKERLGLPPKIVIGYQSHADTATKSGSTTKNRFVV

[2] = test system: human primary hepatocytes; assay: Cell-based expression assay in human primary hepatocytes; details: normalized expression level of mRNA carrying the cap, 5-methoxy uridine; Compound 7 mRNA Cap0-like, others Cap1-like
HeLa Lysate [3] = assay: Cap competition assay in kinetic cell free in vitro translation (free cap analogs vs Cap1-tipped eGFP modRNA); type: biochemical; details: free cap analog 0-100 uM; modRNA with 1-methyl-pseudouridine and 5-methyl cytidine; fluorescence plateau
Method: The in vitro translation assay was conducted with the HeLa 1-step coupled IVT kit (ThermoFisher Scientific, Waltham, Mass.) according to the manufacturer's instructions to assess performance of new cap analogs as free compounds or as an integral part of capped mRNA. Cap analogs with affinity to eIF4E protein may reduce protein synthesis rate in cell-free translation. Further, RNAs containing such cap analogs (“Cap-modRNA”) show different potency of protein synthesis in cell-free translation.
The modified RNAs (“modRNAs”) of eGFP and mCitrine-degron, harboring chemical modifications on either the CAP structures, selected ribose units and/or the bases, were diluted in sterile nuclease-free water to a final amount of 500 ng in 5 uL. […] The in vitro translation reaction was done in a standard 96-well round bottom plate (Corning, Corning, N.Y.), covered with an self-adhesive fluorescence-compatible seal (BioRad, Hercules, Calif.) at 30° C. inside the plate reader Cytation 3 (BioTek, Winooski, Vt.).
The fluorescent signal per reaction increased over time and is considered proportional to the occurring protein synthesis. Each cell-free translation reaction was monitored for 120-180 min with the following settings: eGFP protein—ex. […] The height of the reading head was set to 1 mm above the plate and a reading speed of one per sample every 17 seconds. […]

[4] = residence time as listed in Table 5

Row | τ (eIF4E; [4]) | IC50 (HeLa Lysate [3]) | τ (eIF4E; residence time, inverse of koff, Table 3) | Kd (eIF4E; SPR, Biacore 3000, captured biotinylated eIF4E, Table 3) | Structure (SMILES) | in vivo hEPO normalized to capping and Cap1 (CD-1 mice) | CFT (norm to conc. & capping & cap1) (HeLa Lysate [1]) | h-primHeps norm to Capping and Cap1 [2]
1 | 1.3 s | – | – | – | CO[C@@H]1[C@H](O)[C@@H](COP(=O)(O)OP(=O)(O)OP(=O)(O)OC[C@H]2O[C@@H]([n+]3cn(C)c4c(=O)[nH]c(N)nc43)[C@H](O)[C@@H]2O)O[C@H]1n1cnc2c(=O)[nH]c(N)nc21 [Cap1, m7GpppG(2′-Om)] | 1.00 | 1.00 | 1.00
2 | 0.6 s | – | – | – | CO[C@H]1[C@@H](O)[C@H](n2c[n+](C)c3c(=O)[nH]c(N)nc32)O[C@@H]1COP(=O)(O)OP(=O)(O)OP(=O)(O)OC[C@H]1O[C@@H](n2cnc3c(=O)[nH]c(N)nc32)[C@H](O)[C@@H]1O [ARCA] | 0.70 | 1.93 | 1.52
3 | – | 36 µM | 1.25 s | – | Cn1c[n+]([C@@H]2O[C@H](COP(=O)(O)OP(=O)([O-])OP(=O)(O)OC[C@H]3O[C@@H](n4cnc5c(=O)[nH]c(N)nc54)[C@H](O)[C@@H]3O)[C@@H](O)[C@H]2O)c2nc(N)[nH]c(=O)c21 [Cap0 (i.e., m7GpppG), m7GpppG] | – | – | –
4 | – | – | – | 300 µM | C[n+]1cn([C@@H]2O[C@H](COP(=O)([O-])OCCN(CCOP(=O)([O-])OC[C@H]3O[C@@H](n4c[n+](C)c5c(=O)[nH]c(N)nc54)[C@H](O)[C@@H]3O)C(=O)OC(C)(C)C)[C@@H](O)[C@H]2O)c2nc(N)[nH]c(=O)c21 [Compound 25] | – | – | –
